Earlier results in US9131678B1, “Ultraviolet strategy for avian repellency” (The United States of America, as represented by the …, priority 2009, dated 2015).

Experiments:
Blackbirds = settings: rice seeds treated with 10,000 ppm caffeine, field conditions; >80% of untreated rice seeds consumed
[1] = system: male red-winged blackbirds; settings: 2,500 ppm caffeine, male red-winged blackbirds in captivity

Compound: Cn1c(=O)c2c(ncn2C)n(C)c1=O [caffeine]
- rice seeds consumed (Blackbirds): < 10%
- reduction of rice consumption [1]: 76%
